This assay has as its target T1, human 11β-HSD1 (Homo sapiens, UniProt P28845).
T1 construct: host or cells: microsome fraction
Nature of the assay: Enzymatic 11beta-HSD1 test (SPA-based detection). The assay is classed as biochemical. The following applies: human 11β-HSD1 microsome fraction, [1,2-3H]-cortisone, NADPH, 37° C. 1 hour. How it is done: Enzymatic 11beta-HSD1 test:
To measure the activity of the compounds, an SPA-based detection method (Solly et al. 2005) was employed. First of all, 20 μl of the human 11β-HSD1 microsome fraction (0.2 μg of protein), prepared in 50 mM HEPES, 0.1% BSA (w/v), were applied to a plate with 384 wells. The test compounds (0.09 μl) were applied to the assay plate in 100% DMSO. The reaction was started by addition of 20 μl of [1,2-^3H]-cortisone (0.1 μCi/[…]) in assay buffer comprising 25 mM HEPES, 100 mM KCl, 5 mM NaCl, 2 mM MgCl2 and 0.25 mM NADPH. The plate was agitated at 37° C. for 1 hour. At the same time, a stop solution comprising 20 mg/ml SPA-PVT beads, 1.6 mg/ml monoclonal cortisol antibody and 0.01 mM SSR110887 (inhibitor from the Biovitrium patent) in 50 mM HEPES, 1 M NaCl and 1 M KCl was stirred at room temperature. To stop the reaction, 25 μl of the stop solution were added to each well. The plate was agitated gently at room temperature for 1 further hour and then centrifuged at 500 gav for 1 minute, in order that the SPA beads could settle out. The plate was then read in a Wallac-1450-Microbeta unit with a standard SPA program (counting time 1 min/well). The comparative compound was glycyrrhetinic acid.
Protein and radioactive substrate were dispensed with a Biomek FX unit (Beckman Coulter) for handling liquids. The test compounds were added with a Cybi-Well equipped with a 90 nl pin tool (CyBio).
Lit.: Solly S, Mundt S S, Zokian H J, Juy-Fang Ding G, Hermanowski-Vosatka A, Strulovici B and Zheng W. High-throughput screening of 11β-Hydroxysteroid dehydrogenase type 1 in scintillation proximity format. Assay Drug Dev Technol 2005; 3:377-384.

T1 sequence (P28845 whole entry): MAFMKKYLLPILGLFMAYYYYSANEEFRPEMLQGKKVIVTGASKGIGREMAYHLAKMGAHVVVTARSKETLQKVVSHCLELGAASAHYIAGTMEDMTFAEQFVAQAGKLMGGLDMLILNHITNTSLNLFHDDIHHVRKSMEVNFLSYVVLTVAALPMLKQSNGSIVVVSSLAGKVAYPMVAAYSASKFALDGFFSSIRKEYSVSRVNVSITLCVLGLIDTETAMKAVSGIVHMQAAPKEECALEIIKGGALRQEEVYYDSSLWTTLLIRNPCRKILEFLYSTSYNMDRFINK

The compound `COc1cccc(C2C(C)(C)OC(NC3CCCCC3)=NS2(=O)=O)c1` (stereo not shown) [Example 23, Cyclohexyl-[5-(3-methoxy-phenyl)-6,6-dimethyl-4,4-dioxo-5,6-dihydro-4H-4lambda6-[1,4,3]oxathiazin-2-yl]-amine] came in with an IC50 of 114 nM.

`CC1(C)OC(N[C@@H](CCO)c2ccccc2)=NS(=O)(=O)C1c1cccc(OCc2ccccc2)c1` (stereo partly drawn) [Example 24, (S)-3-[5-(3-Benzyloxy-phenyl)-6,6-dimethyl-4,4-dioxo-5,6-dihydro-4H-4lambda6-[1,4,3]oxathiazin-2-ylamino]-3-phenyl-propan-1-ol]: 21 nM corresponded to half-maximal inhibition (IC50).

The compound `C[C@H](NC1=NS(=O)(=O)C(c2cccc(Br)c2)C(C)(C)O1)c1ccccc1F` (stereo partly drawn) [Example 27, [5-(3-Bromophenyl)-6,6-dimethyl-4,4-dioxo-5,6-dihydro-4H-4lambda6-[1,4,3]oxathiazin-2-yl]-[(S)-1-(2-fluorophenyl)-ethyl]-amine] gave an IC50 of 13 nM. Against the preceding compound, the IC50 is about 1.6-fold lower.

Turning to `C[C@H](NC1=NS(=O)(=O)C(C)(c2cccc(Br)c2)C(C)(C)O1)c1ccccc1F` (stereo partly drawn) [Example 30, [5-(3-Bromophenyl)-5,6,6-trimethyl-4,4-dioxo-5,6-dihydro-4H-4lambda6-[1,4,3]oxathiazin-2-yl]-[(S)-1-(2-fluorophenyl)-ethyl]-amine], the IC50 amounted to 7 nM.

`C[C@H](NC1=NS(=O)(=O)C(c2ccccc2)C(C)(C)O1)c1ccccc1F` (stereo partly drawn) [Example 31, (6,6-Dimethyl-4,4-dioxo-5-phenyl-5,6-dihydro-4H-4lambda6-[1,4,3]oxathiazin-2-yl)-[(S)-1-(2-fluoro-phenyl)-ethyl]-amine] came in with an IC50 of 10 nM.

Consider `CC1(C)OC(N[C@@H](CCO)c2ccccc2)=NS(=O)(=O)C1c1cccc(O)c1` (stereo partly drawn) [Example 32, 3-[2-((S)-3-Hydroxy-1-phenyl-propylamino)-6,6-dimethyl-4,4-dioxo-5,6-dihydro-4H-4lambda6-[1,4,3]oxathiazin-5-yl]-phenol], for which the IC50 was 24 nM.

With `CC1(C)OC(N[C@@H](CCO)c2ccccc2)=NS(=O)(=O)C1(C)c1cccc(Br)c1` (stereo partly drawn) [Example 33, (S)-3-[5-(3-Bromophenyl)-5,6,6-trimethyl-4,4-dioxo-5,6-dihydro-4H-4lambda6-[1,4,3]oxathiazin-2-ylamino]-3-phenyl-propan-1-ol], it took 8 nM to reach half-maximal inhibition (IC50).

Consider `COc1cccc(C2C(C)(C)OC(N[C@@H](CCO)c3ccccc3)=NS2(=O)=O)c1` (stereo partly drawn) [Example 37, (S)-3-[5-(3-Methoxy-phenyl)-6,6-dimethyl-4,4-dioxo-5,6-dihydro-4H-4lambda6-[1,4,3]oxathiazin-2-ylamino]-3-phenyl-propan-1-ol], for which the IC50 was 13 nM.

Turning to `CC1(C)OC(N[C@@H](CCO)c2ccccc2)=NS(=O)(=O)C1(C)c1ccccc1` (stereo partly drawn) [Example 42, (S)-3-Phenyl-3-(5,6,6-trimethyl-4,4-dioxo-5-phenyl-5,6-dihydro-4H-4lambda6-[1,4,3]oxathiazin-2-ylamino)-propan-1-ol], the IC50 was 17 nM.

`CC1(C)OC(N[C@@H](CCO)c2ccccc2F)=NS(=O)(=O)C1(C)c1cccc(N2CCN(S(C)(=O)=O)CC2)c1` (stereo partly drawn) [Example 44, (S)-3-(2-Fluorophenyl)-3-{5-[3-(4-methanesulfonyl-piperazin-1-yl)-phenyl]-5,6,6-trimethyl-4,4-dioxo-5,6-dihydro-4H-4lambda6-[1,4,3]oxathiazin-2-ylamino}-propan-1-ol] displayed an IC50 of 13 nM.

In the case of `CC1(C)OC(N[C@@H](CCO)c2ccccc2F)=NS(=O)(=O)C1(C)c1cccc(-c2cncnc2)c1` (stereo partly drawn) [Example 46, (S)-3-(2-Fluorophenyl)-3-[5,6,6-trimethyl-4,4-dioxo-5-(3-pyrimidin-5-yl-phenyl)-5,6-dihydro-4H-4lambda6-[1,4,3]oxathiazin-2-ylamino]-propan-1-ol], the IC50 was determined as 18 nM.

`CC1(C)OC(N[C@@H](CCO)c2ccccc2F)=NS(=O)(=O)C1(C)c1cccc(Br)c1` (stereo partly drawn) [Example 47, (S)-3-[5-(3-Bromophenyl)-5,6,6-trimethyl-4,4-dioxo-5,6-dihydro-4H-4lambda6-[1,4,3]oxathiazin-2-ylamino]-3-(2-fluorophenyl)-propan-1-ol] had an IC50 of 5 nM. Compared with the last compound, the IC50 is about 3.6-fold lower.

As for `CC1(C)OC(N[C@@H](CCO)c2ccccc2)=NS(=O)(=O)C1(F)c1cccc(Br)c1` (stereo partly drawn) [Example 50, (S)-3-[5-(3-Bromophenyl)-5-fluoro-6,6-dimethyl-4,4-dioxo-5,6-dihydro-4H-4lambda6-[1,4,3]oxathiazin-2-ylamino]-3-phenyl-propan-1-ol], half-maximal inhibition (IC50) required 40 nM.

In turn, `CC1(C)OC(N[C@@H](CCO)c2ccccc2F)=NS(=O)(=O)C1c1ccc(-c2ccccc2)cc1` (stereo partly drawn) [Example 51, (S)-3-(5-Biphenyl-4-yl-6,6-dimethyl-4,4-dioxo-5,6-dihydro-4H-4lambda6-[1,4,3]oxathiazin-2-ylamino)-3-(2-fluorophenyl)-propan-1-ol] had an IC50 of 15 nM.

`CC1(C)OC(N[C@@H](CCO)c2ccccc2F)=NS(=O)(=O)C1(C)c1ccc(-c2ccccc2)cc1` (stereo partly drawn) [Example 53, (S)-3-(5-Biphenyl-4-yl-5,6,6-trimethyl-4,4-dioxo-5,6-dihydro-4H-4lambda6-[1,4,3]oxathiazin-2-ylamino)-3-(2-fluorophenyl)-propan-1-ol] returned an IC50 of 8 nM.

For `CC1(C)OC(N[C@@H](CCO)c2ccccc2)=NS(=O)(=O)C1(C)c1ccc(-c2ccccc2)cc1` (stereo partly drawn) [Example 54, (S)-3-(5-Biphenyl-4-yl-5,6,6-trimethyl-4,4-dioxo-5,6-dihydro-4H-4lambda6-[1,4,3]oxathiazin-2-ylamino)-3-phenyl-propan-1-ol], the midpoint of inhibition, the IC50, lay at 9 nM. This IC50 and that of the compound before are within 1.5-fold of each other.

In turn, `C[C@H](NC1=NS(=O)(=O)C(C)(c2ccc(-c3ccccc3)cc2)C(C)(C)O1)c1ccccc1F` (stereo partly drawn) [Example 55, (5-Biphenyl-4-yl-5,6,6-trimethyl-4,4-dioxo-5,6-dihydro-4H-4lambda6-[1,4,3]oxathiazin-2-yl)-[(S)-1-(2-fluorophenyl)-ethyl]-amine] had a half-inhibitory concentration (IC50) of 28 nM.

Take `Cc1ccccc1-c1ccc(C2C(C)(C)OC(N[C@@H](CCO)c3ccccc3F)=NS2(=O)=O)cc1` (stereo partly drawn) [Example 64, (S)-3-[6,6-Dimethyl-5-(2′-methyl-biphenyl-4-yl)-4,4-dioxo-5,6-dihydro-4H-4lambda6-[1,4,3]oxathiazin-2-ylamino]-3-(2-fluorophenyl)-propan-1-ol]: the IC50 stood at 12 nM.

The compound `CC1(C)OC(N[C@@H](CCO)c2ccccc2F)=NS(=O)(=O)C1c1ccc(-c2ccc(F)cc2)cc1` (stereo partly drawn) [Example 65, (S)-3-[5-(4′-Fluorobiphenyl-4-yl)-6,6-dimethyl-4,4-dioxo-5,6-dihydro-4H-4lambda6-[1,4,3]oxathiazin-2-ylamino]-3-(2-fluorophenyl)-propan-1-ol] registered an IC50 of 21 nM.

Compound `COc1ccc(-c2ccc(C3C(C)(C)OC(N[C@@H](CCO)c4ccccc4F)=NS3(=O)=O)cc2)cc1` (stereo partly drawn) [Example 66, (S)-3-(2-Fluorophenyl)-3-[5-(4′-methoxy-biphenyl-4-yl)-6,6-dimethyl-4,4-dioxo-5,6-dihydro-4H-4lambda6-[1,4,3]oxathiazin-2-ylamino]-propan-1-ol] gave an IC50 of 23 nM.

As for `CC1(C)OC(N[C@@H](CCO)c2ccccc2F)=NS(=O)(=O)C1c1cccc(-c2ccccc2)c1` (stereo partly drawn) [Example 67, (S)-3-(5-Biphenyl-3-yl-6,6-dimethyl-4,4-dioxo-5,6-dihydro-4H-4lambda6-[1,4,3]oxathiazin-2-ylamino)-3-(2-fluorophenyl)-propan-1-ol], inhibition was half-maximal at 15 nM (IC50).

On to `C[C@H](NC1=NS(=O)(=O)C(c2cccc(-c3ccccc3)c2)C(C)(C)O1)c1ccccc1F` (stereo partly drawn) [Example 68, (5-Biphenyl-3-yl-6,6-dimethyl-4,4-dioxo-5,6-dihydro-4H-4lambda6-[1,4,3]oxathiazin-2-yl)-[(S)-1-(2-fluorophenyl)-ethyl]-amine], for which the IC50 worked out at 34 nM.

Regarding `CC1(C)OC(N[C@@H](CCO)c2ccccc2F)=NS(=O)(=O)C1(C)c1cccc(-c2ccc(F)cc2)c1` (stereo partly drawn) [Example 71, (S)-3-[5-(4′-Fluorobiphenyl-3-yl)-5,6,6-trimethyl-4,4-dioxo-5,6-dihydro-4H-4lambda6-[1,4,3]oxathiazin-2-ylamino]-3-(2-fluorophenyl)-propan-1-ol], the IC50 is 22 nM.

In turn, `CC1(C)OC(N[C@@H](CCO)c2ccccc2)=NS(=O)(=O)C1(C)c1cccc(-c2ccccc2)c1` (stereo partly drawn) [Example 72, (S)-3-(5-Biphenyl-3-yl-5,6,6-trimethyl-4,4-dioxo-5,6-dihydro-4H-4lambda6-[1,4,3]oxathiazin-2-ylamino)-3-phenyl-propan-1-ol] yielded an IC50 of 46 nM. This IC50 lies about 2.1-fold higher than the previous one.

`C[C@H](NC1=NS(=O)(=O)C(C)(c2cccc(-c3ccccc3)c2)C(C)(C)O1)c1ccccc1F` (stereo partly drawn) [Example 73, (5-Biphenyl-3-yl-5,6,6-trimethyl-4,4-dioxo-5,6-dihydro-4H-4lambda6-[1,4,3]oxathiazin-2-yl)-[(S)-1-(2-fluorophenyl)-ethyl]-amine] registered an IC50 of 28 nM.
